From PMC11094777, “Mutational and structural studies of (βα)8‐barrel fold methylene‐tetrahydropterin reductases utilizing a common catalytic mechanism” (Protein Science : A Publication of the Protein Society, 2024)
Like-named read-outs stand apart in the source and are kept apart here.

What was measured:
Test in all cases: F420H2 oxidation followed at […] nm, anaerobic
Format in all cases: biochemical
[1] = molecular target: T1, jMer (F420-dependent methylene-H4MPT reductase from Methanocaldococcus jannaschii) (Methanocaldococcus jannaschii, UniProt Q58929); settings: 20 μM F420H2, 100 mM Tris/HCl pH 8.0, 55°C; read-out: App. K m
T1 construct: gene mer; pT7-7_jMer in E. coli ArcticExpress (DE3); no tag mentioned; heat step and column purification; homodimer ~80 kDa
T1 sequence (Q58929 whole entry): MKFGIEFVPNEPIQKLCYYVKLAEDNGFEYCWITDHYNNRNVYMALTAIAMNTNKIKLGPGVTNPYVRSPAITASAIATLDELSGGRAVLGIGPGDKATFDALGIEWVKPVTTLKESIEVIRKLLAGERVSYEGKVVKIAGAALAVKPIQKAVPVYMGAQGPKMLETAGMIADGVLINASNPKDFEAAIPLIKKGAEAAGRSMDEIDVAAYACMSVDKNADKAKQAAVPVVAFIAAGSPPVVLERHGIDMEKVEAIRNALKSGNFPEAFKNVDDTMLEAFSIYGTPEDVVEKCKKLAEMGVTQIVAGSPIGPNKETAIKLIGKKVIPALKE

[2] = molecular target: T1, jMer (F420-dependent methylene-H4MPT reductase from Methanocaldococcus jannaschii); settings: 20 μM F420H2, 100 mM Tris/HCl pH 8.0, 55°C; methylene-H4MPT made in situ from H4MPT and 15 mM formaldehyde; read-out: App. K m
[3] = molecular target: T2, jMer (F420-dependent methylene-H4MPT reductase from Methanocaldococcus jannaschii) (Methanocaldococcus jannaschii, UniProt Q58929, E6Q, form not given); settings: 20 μM F420H2, 100 mM Tris/HCl pH 8.0, 55°C; read-out: App. K m
T2 construct: gene mer; pT7-7_jMer in E. coli ArcticExpress (DE3); no tag mentioned; heat step and column purification; homodimer ~80 kDa
T2 sequence (Q58929 whole entry E6Q, form open): as the sequence (Q58929 whole entry) above, with E6Q counted along it

[4] = molecular target: T3, jMer (F420-dependent methylene-H4MPT reductase from Methanocaldococcus jannaschii) (Methanocaldococcus jannaschii, UniProt Q58929, D96N, form not given); settings: 20 μM F420H2, 100 mM Tris/HCl pH 8.0, 55°C; read-out: App. K m
T3 construct: gene mer; pT7-7_jMer in E. coli ArcticExpress (DE3); no tag mentioned; heat step and column purification; homodimer ~80 kDa
T3 sequence (Q58929 whole entry D96N, form open): as the sequence (Q58929 whole entry) above, with D96N counted along it

`C[C@@H]1Nc2nc(N)[nH]c(=O)c2N2CN(c3ccc(C[C@H](O)[C@H](O)[C@H](O)CO[C@H]4O[C@H](COP(=O)(O)O[C@@H](CCC(=O)O)C(=O)O)[C@@H](O)[C@H]4O)cc3)[C@H](C)[C@@H]12` [Methylene‐H4MPT] showed a Km [1] of 20 ± 5 µM, a Km [2] of 58 ± 29.7 µM and a Km [3] of 34 ± 10 µM. It also gave a Km [4] of 140 ± 30 µM.
